Consider three compounds from ChEMBL document CHEMBL1150845, “Two new constituents of Isodon excisus and their evaluation in an apoptosis inhibition assay” (J Nat Prod, 2001).

By IC50 is commonly meant the concentration needed to halve the response being measured.

In brackets after ≈: the same amount, converted by molar mass.

The test system of this assay is U-937. Briefly: Inhibition of etoposide-induced apoptosis in human U937 cells assessed as inhibition of caspase 3 induction after 7 hrs. It is filed as functional, cell-based. The conditions noted are these: U-937, 7 h.

For `COc1cc(/C=C/C(=O)NC[C@@H](OC)c2ccc(O)cc2)ccc1O`, the concentration for half-maximal inhibition (IC50) was 10.2 µg/mL (≈ 29.7 µM).
As for `COC(=O)C[C@H](OC(=O)/C=C/c1ccc(O)c(O)c1)c1ccc(O)c(O)c1`, the figure is 52.4 µg/mL (≈ 140 µM); as for `S=C(S)N1CCCC1` [PYRROLIDINE DITHIOCARBAMATE], 8.3 µg/mL (≈ 56.4 µM).
